The record followed here is publication PMC2903208 (Organic letters, 2010).

In this assay the target is T1, mCD1d (Mus musculus, UniProt P11609).
T1 sequence (P11609 22-305 limits assumed): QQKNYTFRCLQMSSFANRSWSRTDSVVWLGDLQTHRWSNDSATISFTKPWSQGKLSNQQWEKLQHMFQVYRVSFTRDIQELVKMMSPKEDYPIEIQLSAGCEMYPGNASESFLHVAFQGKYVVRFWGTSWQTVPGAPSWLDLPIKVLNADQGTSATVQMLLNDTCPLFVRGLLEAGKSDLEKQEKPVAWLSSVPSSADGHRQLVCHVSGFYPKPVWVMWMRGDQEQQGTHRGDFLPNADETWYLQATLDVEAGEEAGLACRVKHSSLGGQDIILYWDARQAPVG
T1 sequence (P01887 21-119 partner): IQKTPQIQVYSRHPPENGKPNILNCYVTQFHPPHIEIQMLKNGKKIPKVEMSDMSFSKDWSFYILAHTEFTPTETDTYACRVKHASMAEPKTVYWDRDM
The assay can be described thus: SPR of soluble TCR binding to glycolipid-loaded mCD1d.

SMILES strings stand for the structures.

`CCCCCCCCCCCCCCCCCCCCCCCCCC(=O)N[C@@H](CO[C@H]1O[C@H](CO)[C@H](O)[C@H](O)[C@H]1O)[C@H](O)[C@H](O)CCCCCCCCCCCCCC` [compound 1, α-GalCer] yielded a dissociation constant (Kd) of 12.8 nM.
